The values that follow come from patent US6387668B1, “Enantioselective epoxide hydrolases and genes encoding these” (Rijksuniversiteit Groningen, priority 1997, dated 2002).

Series [1] concerns the target epoxide hydrolase (Agrobacterium tumefaciens, UniProt O31243). Kind of series: Kinetics of epoxide hydrolase with epichlorohydrin as substrate. It counts as biochemical, Agrobacterium radiobacter. The source says:
It is now possible to study the kinetics of epoxide hydrolase by performing rapid quench and stopped flow experiments. Stopped flow experiments are possible since substrate is able to quench the fluorescence signal of some of the tryptophans present in epoxide hydrolase. Also, it is possible to mutate (replace) the amino acids (e.g. tryptophans) that are involved in substrate binding. Either with site-directed mutagenesis or random mutagenesis, it is possible to modify the substrate specificity and the stereoselectivity of epoxide hydrolase. The epoxide hydrolase has the following characteristics.
The asymmetric hydrolysis of the substrate is generally conducted in aqueous solution. The pH of the solution is maintained by means of a buffer. Maximum enzyme activity is obtained at pH 9 but a range of pH 5 to 11 can be employed. The composition of the buffer can for example be Tris/H2SO4, potassium phosphate or glycine/NaOH. The maximum enzyme activity is obtained at a temperature of 50° C., but the reaction can be conducted at a temperature ranging from 5° C. to 65° C. The substrate concentration used to measure the enzyme activity is from 1 to 20 mM. In case of poorly soluble substrates, the water solubility can be increased by adding a miscible organic cosolvent such a DMSO. Also other organic solvents can be used. […]

Series [2] in a line: Storage stability of recombinant epoxide hydrolase. It counts as physicochemical. As to conditions: 4° C., expressed in E.coli.

Consider `ClCC1CO1` (stereo not drawn) [epichlorohydrin], for which, in series [1], the Km is less than 30 µM and the Vmax is on record as 25 μmol min^−1.mg.protein^−1.

B1: epoxide hydrolase: 34 kDa monomeric enzyme (approximately 294 amino acids) from Agrobacterium radiobacter AD1, expressed in E.coli (protein)
chain: MTIRRPEDFKHYEVQLPDVKIHYVREGAGPTLLLLHGWPGFWWEWSKVIGPLAEHYDVIVPDLRGFGDSEKPDLNDLSKYSLDKAADDQAALLDALGIEKAYVVGHDFAAIVLHKFIRKYSDRVIKAAIFDPIQPDFGPVYFGLGHVHESWYSQFHQLDMAVEVVGSSREVCKKYFKHFFDHWSYRDELLTEEELEVHVDNCMKPDNIHGGFNYYRANIRPDAALWTDLDHTMSDLPVTMIWGLGDTCVPYAPLIEFVPKYYSNYTMETIEDCGHFLMVEKPEIAIDRIKTAFR
As to B1, the Stability on storage entry in series [2] was “stable at 4 °C for at least half a year”.
